Assay results reported in ChEMBL document CHEMBL4419171, “SMAC mimetic compounds as apoptosis inducers” (2013).

Assays:
Format in all cases: functional
[1] = system: HL-60; assay: Cytotoxicity against human HL60 cells assessed as cell viability at 10 nM in presence of 100 ng/ml cisplatin incubated for 72 hrs by WST1 dye based assay relative to control
[2] = system: K562; assay: Cytotoxicity against human K562 cells assessed as cell viability at 10 nM in presence of 10 ng/ml cisplatin incubated for 72 hrs by WST1 dye based assay relative to control
[3] = system: K562; assay: Cytotoxicity against human K562 cells assessed as cell viability at 100 nM in presence of 100 nM taxol incubated for 72 hrs by WST1 dye based assay relative to control; conditions: K562, 72 h, read-out: Activity
[4] = system: K562; assay: Cytotoxicity against human K562 cells assessed as cell viability at 0.1 nM in presence of 100 ng/ml cisplatin incubated for 72 hrs by WST1 dye based assay relative to control

SMILES | Activity [1] [%] | Activity [2] [%] | viability at 0.1 µM [3] [%] | Activity [4] [%]
CC[C@H](N)C(=O)N[C@@H]1C(=O)N2[C@@H](CC[C@@H]1CO)CC[C@H]2C(=O)NC(c1ccccc1)c1ccccc1.O=C(O)C(F)(F)F | 43 | 48 | – | –
CC[C@H](N)C(=O)N[C@@H]1C(=O)N2[C@@H](CC[C@@H]1Cn1cc(CO[C@H](C)[C@H](NC(=O)[C@H](C)NC)C(=O)N3CCC[C@H]3Cn3nnnc3Sc3ccccc3)nn1)CC[C@H]2C(=O)NC(c1ccccc1)c1ccccc1.O=C(O)C(F)(F)F | – | – | 27 | 30
